Measurements from BindingDB's records for doi:10.1021/jm970640l (University of Versailles Saint-Quentin-en-Yvelines, 1998).

Assay: Inhibitory activity against hydrolysis of Gly-Pro-pNa by Dipeptidyl peptidase IV purified from CD26-negative C8166 cells

CCCCCCCC[S+](CCCCCCCC)Cc1ccc2cc1C(=O)NCC(=O)NCC(=O)NCCCC[C@H](N)C(=O)N1CCC[C@H]1C(=O)N2 [Cyclo(Lys(alphaH2+)-Pro-Aba-[CH2SOct2-]-Gly2-), 2CF3COO-]
IC50: 630 nM
